Patent publication US20190337924A1, “SUBSTITUTED HYDANTOIN AND THIOHYDANTOIN DERIVATIVES AS ANDROGEN RECEPTOR ANTAGONISTS” (Janssen Pharmaceutica NV, priority 2016, published 2019)
Where a name gives a salt, the structure may show the parent alone.

Row | SMILES | melting point [°C]
1 | CC1(C)C(=O)N(c2ccc(C#N)c(Cl)c2)C(=S)N1c1ccc(OC2CCNCC2)cc1 (as salt: hydrochloride) [Compound 7, 2-Chloro-4-(4,4-dimethyl-5-oxo-3-(4-(piperidin-4-yloxy)phenyl)-2-thioxoimidazolidin-1-yl)benzonitrile hydrochloride] | > 300
2 | CN1CCC(Oc2ccc(N3C(=S)N(c4ccc(C#N)c(Cl)c4)C(=O)C34CCC4)cn2)CC1 (as salt: hydrochloride) [Compound 24, 2-Chloro-4-(5-(6-((1-methylpiperidin-4-yl)oxy)pyridin-3-yl)-8-oxo-6-thioxo-5,7-diazaspiro[3.4]octan-7-yl)benzonitrile hydrochloride] | 239
3 | CC1(C)C(=O)N(c2ccc(C#N)c(Cl)c2)C(=S)N1c1ccc(OC2CCNCC2)nc1 (as salt: hydrochloride) [Compound 9, 2-Chloro-4-(4,4-dimethyl-5-oxo-3-(6-(piperidin-4-yloxy)pyridin-3-yl)-2-thioxoimidazolidin-1-yl)benzonitrile hydrochloride] | 216.5
4 | N#Cc1ccc(N2C(=O)C3(CCC3)N(c3ccc(OC4CCNCC4)nc3)C2=S)cc1Cl (as salt: hydrochloride) [Compound 23, 2-Chloro-4-(8-oxo-5-(6-(piperidin-4-yloxy)pyridin-3-yl)-6-thioxo-5,7-diazaspiro[3.4]octan-7-yl)benzonitrile hydrochloride] | 260.1
5 | CN1CCC(Oc2ccc(N3C(=S)N(c4ccc(C#N)c(Cl)c4)C(=O)C3(C)C)cc2)CC1 (as salt: hydrochloride) [Compound 8, 2-Chloro-4-(4,4-dimethyl-3-(4-((1-methylpiperidin-4-yl)oxy)phenyl)-5-oxo-2-thioxoimidazolidin-1-yl)benzonitrile hydrochloride] | 251.7
6 | CN1CCC(Oc2ccc(N3C(=S)N(c4ccc(C#N)c(Cl)c4)C(=O)C3(C)C)cn2)CC1 (as salt: hydrochloride) [Compound 10, 2-Chloro-4-(4,4-dimethyl-3-(6-((1-methylpiperidin-4-yl)oxy)pyridin-3-yl)-5-oxo-2-thioxoimidazolidin-1-yl)benzonitrile hydrochloride] | 220.9
